Values of other authors, collected in patent US10952973B2, “Production method of pregabalin-containing composition and pregabalin-containing composition” (NITTO DENKO CORPORATION, priority 2018, dated 2021).

Structure (SMILES)	pKa of the acid aqueous solution (23° C., 0.35 mol/L aqueous solution)	acid dissociation constant (pKa) of the carboxyl group (carboxyl group of pregabalin)
CCCCCCCCCCCCOS(=O)(=O)O [dodecylsulfuric acid]	−3	
CC(C)C[C@H](CN)CC(=O)O [pregabalin, Pregabalin]		about 4.2
